One test addresses Stromelysin-1 (Homo sapiens, UniProt P08254). Nature of the test: Inhibitory concentration against human matrix metalloprotease-3 (MMP-3).
Another test has as its target Neutrophil collagenase (Homo sapiens, UniProt P22894). Nature of the test: Inhibitory concentration against human matrix metalloprotease-8 (human neutrophil collagenase, MMP-8).
Test [1] is described as follows: Affinity ratio of IC50 of MMP-8 to IC50 of MMP-3.
Test [2] can be described thus: Affinity ratio of IC50 of MMP-3 to IC50 of MMP-8.

Structures are written as SMILES.

Sequence of Neutrophil collagenase (P22894 whole entry): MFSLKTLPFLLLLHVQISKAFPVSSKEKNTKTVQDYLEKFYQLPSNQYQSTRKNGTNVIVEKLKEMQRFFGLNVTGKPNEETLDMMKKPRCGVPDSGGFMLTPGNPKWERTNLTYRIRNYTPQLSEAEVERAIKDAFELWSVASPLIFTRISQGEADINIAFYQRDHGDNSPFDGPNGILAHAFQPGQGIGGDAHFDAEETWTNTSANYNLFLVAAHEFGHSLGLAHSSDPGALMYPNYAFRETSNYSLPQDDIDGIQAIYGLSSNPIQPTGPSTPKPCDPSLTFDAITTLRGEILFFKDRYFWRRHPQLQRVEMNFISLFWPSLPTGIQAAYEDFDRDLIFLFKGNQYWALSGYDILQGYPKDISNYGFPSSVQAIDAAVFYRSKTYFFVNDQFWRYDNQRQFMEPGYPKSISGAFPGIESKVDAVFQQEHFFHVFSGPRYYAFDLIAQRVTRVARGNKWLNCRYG
Sequence of Stromelysin-1 (P08254 whole entry): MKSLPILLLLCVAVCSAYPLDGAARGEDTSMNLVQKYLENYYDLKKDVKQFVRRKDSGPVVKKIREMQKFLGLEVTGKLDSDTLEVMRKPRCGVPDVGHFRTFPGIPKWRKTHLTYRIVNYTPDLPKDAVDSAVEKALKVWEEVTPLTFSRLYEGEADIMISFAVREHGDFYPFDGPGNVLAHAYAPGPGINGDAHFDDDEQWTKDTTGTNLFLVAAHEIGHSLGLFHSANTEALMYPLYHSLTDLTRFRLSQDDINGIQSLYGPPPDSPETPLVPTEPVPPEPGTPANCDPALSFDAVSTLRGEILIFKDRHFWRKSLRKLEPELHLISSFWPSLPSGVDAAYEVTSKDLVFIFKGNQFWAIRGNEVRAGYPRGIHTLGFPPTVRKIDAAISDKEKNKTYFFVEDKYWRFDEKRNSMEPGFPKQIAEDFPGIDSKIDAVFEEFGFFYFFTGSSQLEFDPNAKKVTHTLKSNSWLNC

Consider `COc1ccc(S(=O)(=O)N2Cc3cc(NC(=O)[C@H](C)N)ccc3CC2C(=O)O)cc1` (some centres not stated), for which the results for the IC50 against Stromelysin-1 and against Neutrophil collagenase were 10000 nM l-1 and 2000 nM, respectively. For the same compound, the Selectivity in test [1] came to 0.7.

`O=C(O)[C@@H]1Cc2ccccc2CN1S(=O)(=O)c1ccc(-c2ccc(F)cc2)cc1` had an IC50 on Stromelysin-1 of 10000 nM l-1. Also, the Selectivity in test [1] worked out at 0.4.

Consider `CC(C)(C)OC(=O)Nc1ccc2c(c1)CC(C(=O)O)N(S(=O)(=O)c1ccc(-c3ccc(F)cc3)cc1)C2` (configuration not stated), for which the IC50 on Stromelysin-1 (read-out: IC50) was 400 nM; at Neutrophil collagenase, 30 nM. In addition, the Selectivity in test [1] was 1.12.

Turning to `COc1ccc(S(=O)(=O)N2Cc3cc(O)ccc3CC2C(=O)O)cc1` (configuration not stated), the IC50 on Stromelysin-1 came out at 10000 nM l-1; against Neutrophil collagenase, 3000 nM. In addition, in test [1], the Selectivity came out at 0.52.

As for `COc1ccc(S(=O)(=O)N2Cc3cc(N)ccc3CC2C(=O)O)cc1` (configuration not stated), the IC50 stood at 10000 nM l-1 at Stromelysin-1 and 2000 nM against Neutrophil collagenase. Moreover, the Selectivity in test [1] came out at 0.7.

As to `O=C(NO)C1Cc2ccccc2CN1S(=O)(=O)CCc1ccncc1` (configuration not stated), the IC50 at Stromelysin-1 (read-out: IC50) was 900 nM; at Neutrophil collagenase, 30 nM. Moreover, the log10(IC50 MMP-3/IC50 MMP-8) in test [2] is 1.48.

With `COc1ccc(S(=O)(=O)N2Cc3cc(NC(=O)OC(C)(C)C)ccc3CC2C(=O)NO)cc1` (configuration not stated), the IC50 worked out at 20 nM at Stromelysin-1 (read-out: IC50) and 3 nM at Neutrophil collagenase. The log10(IC50 MMP-3/IC50 MMP-8) in test [2] was 0.82.

As to `CN(C)c1ccc(Oc2ccc(S(=O)(=O)N3Cc4ccccc4CC3C(=O)NO)cc2)cc1` (configuration not stated), the values for the IC50 on Stromelysin-1 (read-out: IC50) and against Neutrophil collagenase were 30 nM and 2 nM, respectively. In addition, the log10(IC50 MMP-3/IC50 MMP-8) in test [2] was determined as 1.18.

Consider `O=C(O)[C@H]1Cc2ccccc2CN1S(=O)(=O)c1ccc(-c2ccc(F)cc2)cc1`, for which the IC50 at Stromelysin-1 (read-out: IC50) is 400 nM. In addition, the Selectivity in test [1] was determined as 1.3.

Turning to `O=C(NCc1csc(S(=O)(=O)N2Cc3ccccc3CC2C(=O)NO)c1)c1ccccc1` (configuration not stated), the IC50 is 6000 nM at Stromelysin-1 (read-out: IC50) and 800 nM against Neutrophil collagenase. Besides, the log10(IC50 MMP-3/IC50 MMP-8) in test [2] was found to be 0.88.

`CCCCOc1ccc(S(=O)(=O)N2Cc3ccccc3CC2C(=O)NO)cc1` (configuration not stated): the figures for the IC50 on Stromelysin-1 (read-out: IC50) and against Neutrophil collagenase were 30 nM and 2 nM, respectively. Besides, the log10(IC50 MMP-3/IC50 MMP-8) in test [2] turned out to be 1.18.

For `O=C(c1ccccc1)c1ccc(S(=O)(=O)N2Cc3ccccc3CC2C(=O)NO)cc1` (configuration not stated), the IC50 at Stromelysin-1 (read-out: IC50) is 30 nM; on Neutrophil collagenase, 3 nM. For the same compound, in test [2], the log10(IC50 MMP-3/IC50 MMP-8) worked out at 1.

Take `O=C(NO)C1Cc2ccccc2CN1S(=O)(=O)c1ccc2oc3ccccc3c2c1` (configuration not stated): the IC50 on Stromelysin-1 (read-out: IC50) turned out to be 100 nM; on Neutrophil collagenase it was 10 nM. In test [2], the log10(IC50 MMP-3/IC50 MMP-8) was 1.

The record behind these values is ChEMBL document CHEMBL1132460, “Affinity and selectivity of matrix metalloproteinase inhibitors: a chemometrical study from the perspective of ligands and proteins” (J Med Chem, 1999).
